According to patent US9717243B2, “Piperidinecarboxylic acid derivatives as fungicides” (priority 2013, dated 2017):
Where two headings read alike, the source gives them in different places.

Assay: LogP by HPLC on reversed phase columns (EEC directive 79/831 Annex V.A8)
Format: physicochemical
Experimental: Calibration was done with straight-chain alkan2-ones (with 3 to 16 carbon atoms) with known LogP values (measurement of LogP values using retention times with linear interpolation between successive alkanones). Lambda-max-values were determined using UV-spectra from 200 nm to 400 nm and the peak values of the chromatographic signals.

[1] = pH 2.7, synthesis intermediates in preparation examples, read-out: LogP (pH 2.7)
[2] = Table 1, compounds of formula (I), LC-UV, acidic range, 0.1% formic acid in water and acetonitrile as eluent

Log P[a]	SMILES	other results
3.83	C=CCOC(=O)C1(c2nc(C3=NOC(c4c(F)cccc4F)C3)cs2)CCN(C(=O)Cn2nc(C(F)F)cc2C(F)F)CC1 (centres unmarked) [Example I-43]	–
3.55	COC(=O)C1(c2nc(C3=NOC(c4ccccc4)C3)cs2)CCN(C(=O)Cn2nc(C(F)(F)F)cc2C)CC1 (centres unmarked) [Example I-70]	–
1.75	COC(=O)C1(C(N)=S)CCN(C(=O)Cn2nc(C)cc2C(F)F)CC1 [II-5]	–
2.32	COCCOC(=O)C1(C#N)CCN(C(=O)Cn2nc(C(F)F)cc2C(F)F)CC1 [IV-2]	–
2.26	COC(=O)C1(C#N)CCN(C(=O)Nc2cc(C)ccc2C)CC1 [IV-19]	–
–	Cn1nc(C(F)F)cc1NC(=O)Oc1ccccc1 [phenyl [3-(difluoromethyl)-1-methyl-1H-pyrazol-5-yl]carbamate]	chromatographic logP [1]: 2.18
1.16	N#CC1(C(=O)O)CCN(C(=O)Nc2ccccc2)CC1 [IV-21]	–
3.71	CCOC(=O)C1(c2nc(C3=NOC(c4c(Cl)cccc4OS(C)(=O)=O)C3)cs2)CCN(C(=O)Cn2nc(C(F)F)cc2C(F)F)CC1 (centres unmarked) [Example I-22]	–
2.61	CC(C)=CCN(C)C(=O)C1(C#N)CCN(C(=O)Nc2ccccc2)CC1 [IV-41]	–
3.73	CCOC(=O)C1(c2nc(C3=NOC(c4c(F)cccc4F)C3)cs2)CCN(C(=O)Cn2nc(C(F)F)cc2C(F)F)CC1 (centres unmarked) [Example I-24]	–
3.00	C#CCOc1ccccc1C1CC(c2csc(C3(C(=O)OC)CCN(C(=O)Nc4cc(C(F)F)nn4C)CC3)n2)=NO1 (centres unmarked) [Example I-15]	–
–	O=C(Cn1nc(C(F)F)cc1C(F)F)N1CCC(C(=O)OC2CCOC2)(c2nc(C3=NOC(c4ccccc4-c4ccccc4)C3)cs2)CC1 (centres unmarked) [Example I-54]	Log P[a] [2]: 4.31
2.13	CCC(C)NC(=O)C1(C#N)CCN(C(=O)Nc2ccccc2)CC1 (centres unmarked) [IV-45]	–
2.02	COC(=O)C1(C(N)=S)CCN(C(=O)Nc2cc(C)ccc2C)CC1 [II-15]	–
3.71	C#CCOc1ccc(F)c(F)c1C1CC(c2csc(C3(C(=O)OC)CCN(C(=O)Cn4nc(C(F)(F)F)cc4C)CC3)n2)=NO1 (centres unmarked) [Example I-73]	–
1.10	Cc1cc(C(F)F)nn1CC(=O)N1CCC(C#N)(C(=O)O)CC1 [IV-8]	–
2.86	COC(=O)C1(c2nc(C3=NOC(c4c(Cl)cccc4OS(C)(=O)=O)C3)cs2)CCN(C(=O)Nc2cn(C(F)F)nc2C)CC1 (centres unmarked) [Example I-13]	–
3.50	CC(C)(C)OC(=O)C1(C#N)CCN(C(=S)Nc2ccccc2C(F)(F)F)CC1 [IV-25]	–
2.96	CC(C)(C)OC(=O)C1(C#N)CCN(C(=O)Nc2ccc(F)cc2)CC1 [IV-22]	–
4.34	C#CCOc1ccccc1C1CC(c2csc(C3(C(=O)OCc4ccccc4)CCN(C(=O)Cn4nc(C(F)F)cc4C(F)F)CC3)n2)=NO1 (centres unmarked) [Example I-39]	–
2.26	CC(C)=CCNC(=O)C1(C#N)CCN(C(=O)Nc2ccccc2)CC1 [IV-42]	–

Log P[a]	SMILES	other results
2.33	N#CC1(C(=O)O)CCN(C(=S)Nc2ccc(OC(F)(F)F)cc2)CC1 [IV-33]	–
–	COC(=O)C1(C(N)=S)CCN(C(=O)Cn2nc(C(F)F)cc2C(F)F)CC1 [II-11, methyl 1-{[3,5-bis(difluoromethyl)-1H-pyrazol-1-yl]acetyl}-4-carbamothioylpiperidine-4-carboxylate]	chromatographic logP (Table 4, compounds of formula (II), LC-UV, acidic range, 0.1% formic acid in water and acetonitrile as eluent, read-out: Log P[a]): 1.98
3.33	C#CCOc1ccccc1C1CC(c2csc(C3(C(=O)OC)CCN(C(=O)Cn4nc(C(F)F)cc4C)CC3)n2)=NO1 (centres unmarked) [Example I-65]	–
3.39	O=C(Cn1nc(C(F)F)cc1C(F)F)N1CCC(C(=O)OC2CCOC2)(c2nc(C3=NOC(c4ccccc4)C3)cs2)CC1 (centres unmarked) [Example I-56]	–
2.01	N#CC1(C(=O)O)CCN(C(=S)Nc2cccc(Cl)c2)CC1 [IV-32]	–
2.84	CC(C)OC(=O)C1(C#N)CCN(C(=O)Cn2nc(C(F)F)cc2C(F)F)CC1 [IV-10]	–
3.85	CSCCOC(=O)C1(c2nc(C3=NOC(c4c(Cl)cccc4OS(C)(=O)=O)C3)cs2)CCN(C(=O)Cn2nc(C(F)F)cc2C(F)F)CC1 (centres unmarked) [Example I-47]	–
2.96	COC(=O)C1(c2nc(C3=NOC(c4ccccc4OS(C)(=O)=O)C3)cs2)CCN(C(=O)Cn2nc(C(F)F)cc2C)CC1 (centres unmarked) [Example I-64]	–
3.15	CCC(C)NC(=O)C1(C#N)CCN(C(=O)Nc2ccc(Cl)c(C(F)(F)F)c2)CC1 (centres unmarked) [IV-39]	–
2.88	C#CCOc1ccc(F)c(F)c1C1CC(c2csc(C3(C(=O)OC)CCN(C(=O)Nc4cn(C)nc4C(F)F)CC3)n2)=NO1 (centres unmarked) [Example I-21]	–
–	COC(=O)C1(c2nc(C3=NOC(c4ccccc4-c4ccccc4)C3)cs2)CCN(C(=O)Cn2nc(C(F)F)cc2C(F)F)CC1 (centres unmarked) [Example I-2]	Log P[a] [2]: 4.36
3.33	COC(=O)C1(c2nc(C3=NOC(c4ccccc4OS(C)(=O)=O)C3)cs2)CCN(C(=O)Cn2nc(C(F)(F)F)cc2C)CC1 (centres unmarked) [Example I-71]	–
–	O=C(Cn1nc(C(F)F)cc1C(F)F)N1CCC(C(=O)OCc2ccccc2)(c2nc(C3=NOC(c4ccccc4-c4ccccc4)C3)cs2)CC1 (centres unmarked) [Example I-36]	Log P[a] [2]: 5.08
3.96	C#CCOc1ccccc1C1CC(c2csc(C3(C(=O)OCC=C)CCN(C(=O)Cn4nc(C(F)F)cc4C(F)F)CC3)n2)=NO1 (centres unmarked) [Example I-45]	–
3.71	C#CCOc1ccccc1C1CC(c2csc(C3(C(=O)OC)CCN(C(=O)Cn4nc(C(F)(F)F)cc4C)CC3)n2)=NO1 (centres unmarked) [Example I-72]	–
3.04	C#CCOc1ccc(F)c(F)c1C1CC(c2csc(C3(C(=O)OC)CCN(C(=O)Nc4cn(C(F)F)nc4C)CC3)n2)=NO1 (centres unmarked) [Example I-18]	–
4.19	CS(=O)(=O)Oc1cccc(Cl)c1C1CC(c2csc(C3(C(=O)OCc4ccccc4)CCN(C(=O)Cn4nc(C(F)F)cc4C(F)F)CC3)n2)=NO1 (centres unmarked) [Example I-35]	–
2.27	C#CCOC(=O)C1(C(N)=S)CCN(C(=O)Cn2nc(C(F)F)cc2C(F)F)CC1 [II-17]	–
–	CCOC(=O)C1(c2nc(C3=NOC(c4ccccc4-c4ccccc4)C3)cs2)CCN(C(=O)Cn2nc(C(F)F)cc2C(F)F)CC1 (centres unmarked) [Example I-23]	Log P[a] [2]: 4.64
–	COC(=O)C1(C#N)CCN(C(=O)Nc2cc(C(F)F)nn2C)CC1 [IV-17, methyl 4-cyano-1-{[3-(difluoromethyl)-1-methyl-1H-pyrazol-5-yl]carbamoyl}piperidine-4-carboxylate]	chromatographic logP (Table 2, compounds of formula (IV), LC-UV, acidic range, 0.1% formic acid in water and acetonitrile as eluent, read-out: Log P[a]): 1.53
2.23	COC(=O)C1(C(N)=S)CCN(C(=O)Nc2cc(C(F)F)ccc2C(F)F)CC1 [II-13]	–

Log P[a]	SMILES	other results
4.14	C#CCOc1ccccc1C1CC(c2csc(C3(C(=O)OC(C)C)CCN(C(=O)Cn4nc(C(F)F)cc4C(F)F)CC3)n2)=NO1 (centres unmarked) [Example I-33]	–
2.73	COC(=O)C1(c2nc(C3=NOC(c4c(Cl)cccc4OS(C)(=O)=O)C3)cs2)CCN(C(=O)Nc2cn(C)nc2C(F)F)CC1 (centres unmarked) [Example I-14]	–
2.88	C#CCOc1ccccc1C1CC(c2csc(C3(C(=O)OC)CCN(C(=O)Nc4cn(C)nc4C(F)F)CC3)n2)=NO1 (centres unmarked) [Example I-20]	–
1.29	N#Cc1cccc(NC(=O)N2CCC(C#N)(C(=O)O)CC2)c1 [IV-31]	–
–	COC(=O)C1(c2nc(C3=NOC(c4c(Cl)cccc4OS(C)(=O)=O)C3)cs2)CCN(C(=O)Nc2cc(C(F)F)nn2C)CC1 (centres unmarked) [Example I-12, methyl 4-[4-(5-{2-chloro-6-[(methylsulfonyl)oxy]phenyl}-4,5-dihydro-1,2-oxazol-3-yl)-1,3-thiazol-2-yl]-1-{[3-(difluoromethyl)-1-methyl-1H-pyrazol-5-yl]carbamoyl}piperidine-4-carboxylate]	chromatographic logP (Table 1, compounds of formula (I), LC-UV, acidic range, 0.1% formic acid in water and acetonitrile as eluent, read-out: Log P[a]): 2.84
1.30	COC(=O)C1(C(N)=S)CCN(C(=O)Nc2cn(C(F)F)nc2C)CC1 [II-14]	–
2.69	CCC(C)NC(=O)C1(C#N)CCN(C(=S)Nc2cccc(Cl)c2)CC1 (centres unmarked) [IV-35]	–
2.49	CSCCOC(=O)C1(C(N)=S)CCN(C(=O)Cn2nc(C(F)F)cc2C(F)F)CC1 [II-2]	–
2.02	NC(=S)C1(C(=O)OC2CCOC2)CCN(C(=O)Cn2nc(C(F)F)cc2C(F)F)CC1 (centres unmarked) [II-1]	–
3.85	C=CCOC(=O)C1(c2nc(C3=NOC(c4ccccc4)C3)cs2)CCN(C(=O)Cn2nc(C(F)F)cc2C(F)F)CC1 (centres unmarked) [Example I-44]	–
–	COC(=O)C1(c2nc(C3=NOC(c4ccccc4-c4ccccc4)C3)cs2)CCN(C(=O)Cn2nc(C(F)F)cc2C)CC1 (centres unmarked) [Example I-61]	Log P[a] [2]: 4.09
3.87	C#CCOc1ccccc1C1CC(c2csc(C3(C(=O)OCC)CCN(C(=O)Cn4nc(C(F)F)cc4C(F)F)CC3)n2)=NO1 (centres unmarked) [Example I-27]	–
2.10	COCCOC(=O)C1(C(N)=S)CCN(C(=O)Cn2nc(C(F)F)cc2C(F)F)CC1 [II-18]	–
2.96	CC(C)(C)OC(=O)C1(C#N)CCN(C(=O)Cc2ccccc2)CC1 [IV-23]	–
3.96	CC(C)OC(=O)C1(c2nc(C3=NOC(c4c(Cl)cccc4OS(C)(=O)=O)C3)cs2)CCN(C(=O)Cn2nc(C(F)F)cc2C(F)F)CC1 (centres unmarked) [Example I-29]	–
–	CC(=O)C1=NOC(c2c(Cl)cccc2OS(C)(=O)=O)C1 (centres unmarked) [2-(3-acetyl-4,5-dihydro-1,2-oxazol-5-yl)-3-chlorophenyl methanesulfonate]	chromatographic logP [1]: 2.46
3.44	COC(=O)C1(c2nc(C3=NOC(c4c(F)cccc4F)C3)cs2)CCN(C(=O)Cn2nc(C(F)F)cc2C(F)F)CC1 (centres unmarked) [Example I-1]	–
3.23	N#CC1(C(=O)OCc2ccccc2)CCN(C(=O)Cn2nc(C(F)F)cc2C(F)F)CC1 [IV-6]	–
2.53	COC(=O)C1(c2nc(C3=NOC(c4ccccc4OS(C)(=O)=O)C3)cs2)CCN(C(=O)Nc2cn(C)nc2C(F)F)CC1 (centres unmarked) [Example I-19]	–

SMILES	Log P[a]	other results
COC(=O)C1(c2nc(C3=NOC(c4ccccc4OS(C)(=O)=O)C3)cs2)CCN(C(=O)Nc2cc(C(F)F)nn2C)CC1 (centres unmarked) [Example I-8]	2.64	–
